{
  "source": "patent US20250188061A1",
  "about": "“NOVEL DEUTERATED PYRIMIDIN-2-YL SULFONAMIDE DERIVATIVES” (Hoffmann-La Roche Inc., priority 2022, published 2025)",
  "note": "pIC50: −log10 of the molar value.",
  "data": [
    {"target": "human GPR17 short isoform (Homo sapiens, UniProt Q13304)", "sequence (Q13304 29-367)": "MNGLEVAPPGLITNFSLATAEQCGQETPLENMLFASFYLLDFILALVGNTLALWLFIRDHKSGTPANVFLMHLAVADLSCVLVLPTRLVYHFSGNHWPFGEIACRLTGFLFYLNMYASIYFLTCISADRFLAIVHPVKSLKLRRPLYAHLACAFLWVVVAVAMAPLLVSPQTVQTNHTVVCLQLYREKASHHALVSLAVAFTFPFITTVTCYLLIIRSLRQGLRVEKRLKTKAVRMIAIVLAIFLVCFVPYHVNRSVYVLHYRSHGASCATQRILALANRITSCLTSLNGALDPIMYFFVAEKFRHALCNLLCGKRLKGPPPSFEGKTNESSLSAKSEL", "test": "GPR17 cAMP assay (hGPR17 cAMP, antagonist mode)", "assay_type": "cell-based", "settings": "CHO-K1 cells stably expressing human GPR17 short isoform; EC80 of agonist MDL29,951; forskolin 15 μM; TR-FRET cAMP", "description": "Changes in intracellular cyclic adenosine monophosphate (cAMP) levels were quantified using the Nano-TRF Detection Assay kit (Roche Diagnostics, Cat. No. 05214386001). This assay allows for direct cAMP quantification in a homogeneous solution. cAMP is detected based on time-resolved fluorescence energy transfer (TR-FRET) and competitive binding of ruthenylated cAMP and endogenous cAMP to an anti-cAMP monoclonal antibody labeled with AlexaFluor-700. The Ruthenium complex serves as the FRET donor and transfers energy to AlexaFluor-700. The FRET signal is inversely proportional to the cAMP concentration.\nCHO-GPR17S cells were detached with Accutase and resuspended in assay buffer consisting of Hank's Balanced Salt Solution (HBSS), 10 mM HEPES (4-(2-hydroxyethyl) piperazine-1-ethanesulfonic acid solution) and 0.1% bovine serum albumin (pH 7.4). The cells were seeded in black 384-well plates (Corning) at a density of 10,000 cells/20 μl assay buffer until the addition of compounds.\nTest antagonist compounds were serially diluted in dimethyl sulfoxide (DMSO) and spotted in 384-well plates. The compounds were then diluted in HBSS buffer supplemented with an EC80 concentration of MDL29,951 (3-(2-Carboxy-4,6-dichloroindol-3-yl) propionic acid) (GPR17 agonist) plus 3-Isobutyl-1-methylxanthine (IBMX) (0.5 mM final concentration) and added to the cells at room temperature. Forskolin (15 μM final concentration) was added 5 minutes after the test compounds and the cells were incubated at room temperature for 30 minutes. The assay was stopped by adding cAMP detection mix (containing detergents for cell lysis) for 90 minutes at room temperature.\nCellular cAMP was measured using a Paradigm reader (Molecular Devices). The raw data was used to calculate the FRET signal based on the assay's P-factor as per cAMP kit instructions. The data was normalized to the maximal activity of a reference antagonist and dose response curves were fitted to the percent activity of the test compounds using a sigmoidal dose response model (Genedata Screener).", "values": [
      {"smiles": "[2H]C([2H])(F)C([2H])([2H])Oc1cnc(NS(=O)(=O)c2c[nH]c3c(F)c(Cl)ccc23)nc1OC", "note": "[Example 1, 6-chloro-7-fluoro-N-[4-methoxy-5-(1,1,2,2-tetradeuterio-2-fluoro-ethoxy)pyrimidin-2-yl]-1H-indole-3-sulfonamide]", "pIC50": 7.07},
      {"smiles": "[2H]C([2H])(Oc1c(OC)nc(NS(=O)(=O)c2c[nH]c3nc(Br)ccc23)nc1OC)C(F)F", "note": "[Example 10, 6-bromo-N-[5-(1,1-dideuterio-2,2-difluoro-ethoxy)-4,6-dimethoxy-pyrimidin-2-yl]-1H-pyrrolo[2,3-b]pyridine-3-sulfonamide]", "pIC50": 7.09},
      {"smiles": "[2H]C([2H])(c1cnc(NS(=O)(=O)c2c[nH]c3c(F)c(Br)ccc23)nc1OC)C(F)F", "note": "[Example 8, 6-bromo-N-[5-(1,1-dideuterio-2,2-difluoro-ethyl)-4-methoxy-pyrimidin-2-yl]-7-fluoro-1H-indole-3-sulfonamide]", "pIC50": 6.86},
      {"smiles": "[2H]C([2H])(F)C([2H])([2H])Oc1c(OC)nc(NS(=O)(=O)c2c[nH]c3nc(Br)ccc23)nc1OC", "note": "[Example 2, 6-bromo-N-[4,6-dimethoxy-5-(1,1,2,2-tetradeuterio-2-fluoro-ethoxy)pyrimidin-2-yl]-1H-pyrrolo [2,3-b]pyridine-3-sulfonamide]", "pIC50": 7.38},
      {"smiles": "[2H]C([2H])(c1cnc(NS(=O)(=O)c2c[nH]c3cc(F)ccc23)nc1OC)C(F)F", "note": "[Example 4, N-[5-(1,1-dideuterio-2,2-difluoro-ethyl)-4-methoxy-pyrimidin-2-yl]-6-fluoro-1H-indole-3-sulfonamide]", "pIC50": 7.03},
      {"smiles": "[2H]C([2H])(c1c(OC)nc(NS(=O)(=O)c2c[nH]c3nc(C)ccc23)nc1OC)C(F)F", "note": "[Example 12, N-[5-(1,1-dideuterio-2,2-difluoro-ethyl)-4,6-dimethoxy-pyrimidin-2-yl]-6-methyl-1H-pyrrolo [2,3-b]pyridine-3-sulfonamide]", "pIC50": 7.24},
      {"smiles": "[2H]C([2H])(c1cnc(NS(=O)(=O)c2c[nH]c3c(F)c(Cl)ccc23)nc1OC)C(F)F", "note": "[Example 5, 6-chloro-N-[5-(1,1-dideuterio-2,2-difluoro-ethyl)-4-methoxy-pyrimidin-2-yl]-7-fluoro-1H-indole-3-sulfonamide]", "pIC50": 6.97},
      {"smiles": "[2H]C([2H])(c1c(OC)nc(NS(=O)(=O)c2c[nH]c3nc(Br)ccc23)nc1OC)C(F)F", "note": "[Example 9, 6-bromo-N-[5-(1,1-dideuterio-2,2-difluoro-ethyl)-4,6-dimethoxy-pyrimidin-2-yl]-1H-pyrrolo[2,3-b]pyridine-3-sulfonamide]", "pIC50": 7.64},
      {"smiles": "[2H]C([2H])(c1cnc(NS(=O)(=O)c2c[nH]c3cc(Cl)ccc23)nc1OC)C(F)F", "note": "[Example 7, 6-chloro-N-[5-(1,1-dideuterio-2,2-difluoro-ethyl)-4-methoxy-pyrimidin-2-yl]-1H-indole-sulfonamide]", "pIC50": 7.26},
      {"smiles": "[2H]C([2H])(c1c(OC)nc(NS(=O)(=O)c2c[nH]c3nc(Cl)ccc23)nc1OC)C(F)F", "note": "[Example 11, 6-chloro-N-[5-(1,1-dideuterio-2,2-difluoro-ethyl)-4,6-dimethoxy-pyrimidin-2-yl]-1H-pyrrolo[2,3-b]pyridine-3-sulfanomide]", "pIC50": 7.43},
      {"smiles": "[2H]C([2H])(F)C([2H])([2H])Oc1c(OC)nc(NS(=O)(=O)c2c[nH]c3nc(Cl)ccc23)nc1OC", "note": "[Example 3, 6-chloro-N-[4,6-dimethoxy-5-(1,1,2,2-tetradeuterio-2-fluoro-ethoxy)pyrimidin-2-yl]-1H-pyrrolo[2,3-b]pyridine-3-sulfonamide]", "pIC50": 7.20},
      {"smiles": "[2H]C([2H])(CF)Oc1cnc(NS(=O)(=O)c2c[nH]c3c(F)c(Cl)ccc23)nc1OC", "note": "[Example 6, 6-chloro-N-[5-(1,1-dideuterio-2-fluoro-ethoxy)-4-methoxy-pyrimidin-2-yl]-7-fluoro-1H-indole-3-sulfonamide]", "pIC50": 6.98}
    ]}
  ]
}
